Laboratory results as given in US20200172473A1, “DUAL MODULATORS OF FARNESOID X RECEPTOR AND SOLUBLE EPOXIDE HYDROLASE” (JOHANN WOLFGANG GOETHE-UNIVERSITÄT FRANKFURT AM MAIN, priority 2017, published 2020).

The compounds below were run against T1, human FXR (Homo sapiens, UniProt Q96RI1) (assay: full-length FXR reporter gene (transactivation) assay in HeLa cells). Settings: 50 μM; relative to GW4064 (1c) at 3 μM = 100%.
T1 construct: characterized in a full-length (fl) FXR reporter gene assay in HeLa cells; expressed in transfected cells; host or cells: HeLa
T1 sequence (Q96RI1 1-486): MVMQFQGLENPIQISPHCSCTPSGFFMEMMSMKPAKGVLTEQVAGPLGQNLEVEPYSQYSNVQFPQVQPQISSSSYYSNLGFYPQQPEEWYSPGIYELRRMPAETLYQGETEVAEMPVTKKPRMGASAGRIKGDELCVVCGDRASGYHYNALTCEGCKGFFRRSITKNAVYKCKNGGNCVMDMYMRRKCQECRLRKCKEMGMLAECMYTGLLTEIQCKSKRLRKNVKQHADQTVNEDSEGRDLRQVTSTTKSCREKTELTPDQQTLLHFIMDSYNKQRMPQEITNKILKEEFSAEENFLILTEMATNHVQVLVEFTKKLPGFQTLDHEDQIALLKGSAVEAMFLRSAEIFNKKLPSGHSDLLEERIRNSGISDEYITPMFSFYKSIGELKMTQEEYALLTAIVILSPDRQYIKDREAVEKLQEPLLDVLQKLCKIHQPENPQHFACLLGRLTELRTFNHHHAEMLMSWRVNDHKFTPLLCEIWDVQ
T1 sequence (P19793 1-462 partner): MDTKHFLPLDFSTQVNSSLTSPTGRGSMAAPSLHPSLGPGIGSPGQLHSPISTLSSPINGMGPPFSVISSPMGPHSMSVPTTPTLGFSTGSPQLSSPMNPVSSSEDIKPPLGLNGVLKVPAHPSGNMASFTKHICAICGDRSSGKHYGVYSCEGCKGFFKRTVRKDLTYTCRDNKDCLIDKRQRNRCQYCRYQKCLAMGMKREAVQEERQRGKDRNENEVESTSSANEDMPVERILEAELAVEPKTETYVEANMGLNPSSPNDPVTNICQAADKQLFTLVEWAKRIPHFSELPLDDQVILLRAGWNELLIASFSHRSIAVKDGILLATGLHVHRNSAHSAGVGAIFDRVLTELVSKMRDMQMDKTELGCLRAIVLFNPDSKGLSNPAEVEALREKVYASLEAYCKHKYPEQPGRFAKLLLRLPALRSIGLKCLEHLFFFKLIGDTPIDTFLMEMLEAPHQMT
Assay type: cell-based
Excerpt: This assay is based on a reporter construct containing a firefly luciferase under the control of the FXR response element from bile salt export protein (BSEP). FXR and its hetero dimer partner retinoid X receptor (RXR) as expression constructs under the control of a CMV promoter as well as a constitutively expressed renilla luciferase (SV40 promoter) for normalization and toxicity control were co-transfected. […] The sEH inhibitory potency of the test compounds was quantified in a fluorescence-based assay using recombinant enzyme and the fluorogenic sEH substrate PHOME^37 that is hydrolyzed to a fluorescent 6-methoxynaphtaldehyde by sEH.
Plasmids: pcDNA3-hFXR contains the sequence of human FXR and was already published elsewhere.^47 pGL3 basic (Promega Corporation, Fitchburg, Wis., USA) was used as a reporter plasmid, with a shortened construct of the promotor of the bile salt export protein (BSEP) cloned into the SacI/NheI cleavage site in front of the luciferase gene.^48 pRL-V40 (Promega) was transfected as a control for normalization of transfection efficiency and cell growth. pSG5-hRXR was already published elsewhere as well.^49
Assay procedure: HeLa cells were grown in DMEM high glucose supplemented with 10% FCS, sodium pyruvate (1 mM), penicillin (100 U/mL) and streptomycin (100 μg/mL) at 37° C. and 5% CO2. […] Transient transfection of HeLa cells with BSEP-pGL3, pRL-SV40 and the expression plasmids pcDNA3-hFXR and pSG5-hRXR was carried out using calcium phosphate transfection method. […] Each concentration was tested in triplicate wells and each experiment was repeated independently at least three times. […] Luminescence was measured with a Tecan Infinite M200 luminometer (Tecan Deutschland GmbH, Crailsheim, Germany). Normalization of transfection efficiency and cell growth was done by division of firefly luciferase data by renilla luciferase data multiplied by 1000 resulting in relative light units (RLU). Fold activation was obtained by dividing the mean RLU of the tested compound at a respective concentration by the mean RLU of untreated control. […] EC50 and standard error of the mean values were calculated with the mean relative activation values of at least three independent experiments by SigmaPlot 10.0 (Systat Software GmbH, Erkrath, Germany) using a four parameter logistic regression.

FXR % activation at indicated conc. | SMILES
inactive (50 μM) | Cc1cc(C(=O)O)ccc1CNC(=O)c1ccc(C(C)(C)C)cc1 [compound 29]
inactive (50 μM) | CC(C)(C)c1ccc(C(=O)NCc2ccc(CO)cc2)cc1 [compound 33]
inactive (50 μM) | CC(C)(C)c1ccc(C(=O)NCc2ccc(N)cc2)cc1 [compound 42]

The next lines start with the compound.

SMILES | FXR % activation at indicated conc.
O=C(O)c1ccc(CNC(=O)c2ccc(Cl)c(Cl)c2)cc1 [compound 14] | inactive (50 μM)
CC(C)(C)c1ccc(C(=O)NCc2ccc(C#N)cc2)cc1 [compound 36] | inactive (50 μM)
CC(=O)NS(=O)(=O)c1ccc(CNC(=O)c2ccc(C(C)(C)C)cc2)cc1 [compound 45] | inactive (50 μM)

Same assay, conditions: HeLa; read-out: FXR activation max. rel. activation (converted)

Emax | SMILES
13% | CC(C)(C)c1ccc(C(=O)NCc2ccc(C(=O)O)cc2)cc1 [compound 18]
19% | CC(C)(C)c1ccc(C(=O)NCc2ccc(CC(=O)O)cc2)cc1 [compound 23]
16% | CC(C)(C)c1ccc(C(=O)NCc2ccc(CCC(=O)O)cc2)cc1 [compound 24]
21% | CC(C)(C)c1ccc(C(=O)NCc2ccc(OCC(=O)O)cc2)cc1 [compound 25]
28% | CC(C)(C)c1ccc(C(=O)NCc2ccc(C(=O)O)c(F)c2)cc1 [compound 27]
26% | CC(C)(C)c1ccc(C(=O)NCc2ccc(C(=O)O)cc2F)cc1 [compound 30]
25% | CC(C)(C)c1ccc(C(=O)NCc2ccc(C(=O)O)cc2Cl)cc1 [compound 31]
29% | CC(=O)c1ccc(CNC(=O)c2ccc(C(C)(C)C)cc2)cc1 [compound 35]
27% | CC(C)(C)c1ccc(C(=O)NCc2ccc(C(N)=O)cc2)cc1 [compound 37]
31% | CC(=O)Nc1ccc(CNC(=O)c2ccc(C(C)(C)C)cc2)cc1 [compound 40]

More lines, now with the values behind:

SMILES | Emax
O=C(O)c1ccc(CNC(=O)c2cccc(-c3ccccc3)c2)cc1 [compound 12] | 14%
O=C(O)c1ccc(CNC(=O)c2ccc(-c3ccccc3)cc2)cc1 [compound 13] | 24%
COc1cc(C(=O)NCc2ccc(C(=O)O)cc2)ccc1C(C)(C)C [compound 20] | 23%
CC(C)(C)c1ccc(NC(=O)Nc2ccc(C(=O)O)cc2)cc1 [compound 21] | 14%
CC(C)(C)c1ccc(C(=O)NCc2ccc(C=O)cc2)cc1 [compound 34] | 22%
CNC(=O)c1ccc(CNC(=O)c2ccc(C(C)(C)C)cc2)cc1 [compound 38] | 29%
CN(C)C(=O)c1ccc(CNC(=O)c2ccc(C(C)(C)C)cc2)cc1 [compound 39] | 17 ± 100%
CC(C)(C)c1ccc(C(=O)NCc2ccc(NC(=O)C(F)(F)F)cc2)cc1 [compound 41] | 20%
CC(C)(C)c1ccc(C(=O)NCc2ccc(-c3nnn[nH]3)cc2)cc1 [compound 43] | 23%
CC(C)(C)c1ccc(C(=O)NCc2ccc(S(N)(=O)=O)cc2)cc1 [compound 44] | 16%
CC(C)(C)c1ccc(C(=O)NCc2ccc(NS(C)(=O)=O)cc2)cc1 [compound 46] | 22%
COc1ccc(CNC(=O)c2ccc(C(C)(C)C)cc2)cc1 [compound 47] | 19%
CCOc1ccc(CNC(=O)c2ccc(C(C)(C)C)cc2)cc1 [compound 48] | 31%
CC(C)Oc1ccc(CNC(=O)c2ccc(C(C)(C)C)cc2)cc1 [compound 49] | 26%
CC(C)(C)c1ccc(C(=O)NCc2ccc(OC(F)(F)F)cc2)cc1 [compound 50] | 26%
C[S+]([O-])c1ccc(CNC(=O)c2ccc(C(C)(C)C)cc2)cc1 (centres unmarked) [compound 52] | 24%
CC(C)(C)c1ccc(C(=O)NCc2ccc(S(C)(=O)=O)cc2)cc1 [compound 53] | 34%
CC(C)(C)c1ccc(C(=O)NCc2ccc(SC(F)(F)F)cc2)cc1 [compound 54] | 19%
CC(C)(C)c1ccc(C(=O)NCc2ccc(S(N)(=O)=O)cc2F)cc1 [compound 55] | 34%
